Test results taken from patent US9249125B2, “Pyrazole derivatives as p38 MAP inhibitors” (RESPIVERT LIMITED, priority 2012, dated 2016).

Legend:
Syk [1] = biological target: T1, Syk (Homo sapiens (Human), UniProt P43405); assay: Syk enzyme inhibition (FRET, Z-LYTE); assay type: biochemical
Outline: (§1)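 Z-LYTE FRET kinase assay: enzyme (3000 or 2000 ng/mL stock, respectively) preincubated 2 h at RT with compound (4–0.004 μg/mL stocks), then FRET peptide plus ATP (800 μM stock for c-Src, 60 μM for Syk) added for 1 h. Protease development 1 h; phosphorylation from coumarin/fluorescein emission ratio.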

GSK3α [2] = biological target: T2, GSK3α (Homo sapiens (Human), UniProt P49840); assay: GSK 3α enzyme inhibition (FRET, Z-LYTE); assay type: biochemical
Outline: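 GSK3α (500 ng/mL stock) was preincubated 2 hr at RT with compound (4 to 0.004 μg/mL stocks), then FRET peptide (8 μM stock) and ATP (40 μM stock) added for 1 hr. Protease development for 1 hr cleaved unphosphorylated peptide; coumarin/fluorescein emission ratio reported phosphorylation.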

[3] = tested on: LPS-induced IL-8 release in d-U937 cells; assay: LPS-induced IL-8 release in d-U937 cells; assay type: cell-based; settings: Homo sapiens, dU937, read-out: LPS Induced Release of Cytokine in d-937 Cells IL-8 IC50
Outline: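 PMA (100 ng/mL, 48–72 hr)-differentiated U937; cpd 2 hr pre-inc; LPS 0.1 μg/mL (E. coli O111:B4) 4 hr. Supernatant TNFα/IL-8 by sandwich ELISA. IL-8 inhibition per concentration vs vehicle; REC50 from curve fit.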

cSrc = cSrc (Homo sapiens (Human), UniProt P12931); assay: c-Src enzyme inhibition (FRET, Z-LYTE); assay type: biochemical
Outline: as §1

p38 MAPKα [4] = biological target: T3, p38 MAPKα (Homo sapiens (Human), UniProt Q16539); assay: p38 MAPKα enzyme inhibition (FRET, Z-LYTE); assay type: biochemical
d-U937 cells = assay: Cell viability: MTT assay; assay type: cell-based, human; settings: 1 μg/mL
Outline: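 Differentiated U937 cells were exposed to compound at 1 or 10 μg/mL either 4 h in 5% FCS RPMI1640 or 24 h in 10% FCS RPMI1640, then given MTT for 1 h, DMSO-solubilised and read at 550 nm. Percent viability loss versus 0.5% DMSO vehicle; apparent gains appear negative.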

[5] = tested on: Poly I:C-induced ICAM-1 expression in BEAS2B cells; assay: Poly I:C-induced ICAM-1 expression in BEAS2B cells; assay type: cell-based; settings: Homo sapiens, BEAS-2B, read-out: Poly IC induced ICAM1 in BEAS2B IC50
Outline: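 BEAS2B human bronchial epithelial cells pre-incubated with compound for 2 hr, then transfected with 1 μg/mL poly I:C plus Oligofectamine. At 18 hr, surface ICAM-1 measured by cell-based ELISA (HRP, OD450–655). Signal corrected for cell number by crystal violet OD595.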

PBMC cells = assay: Cell mitosis assay; assay type: cell-based, human
Protocol: Peripheral blood mononucleocytes (PBMCs) from healthy subjects are separated from whole blood (Quintiles, London, UK) using a density gradient (Histopaque-1077, Sigma-Aldrich, Poole, UK). The PBMCs (3 million cells per sample) are subsequently treated with 2% PHA (Sigma-Aldrich, Poole, UK) for 48 hr, followed by a 20 hr exposure to varying concentrations of test compounds. At 2 hr before collection, PBMCs are treated with demecolcine (0.1 μg/mL) (Invitrogen, Paisley, UK,) to arrest cells in metaphase. To observe mitotic cells, PBMCs are permeabilised and fixed by adding Intraprep (50 μL) (Beckman Coulter, France), and stained with anti-phospho-histone 3 (0.26 ng/L) (#9701; Cell Signalling, Danvers, Mass.) and propidium iodide (1 mg/mL) (Sigma-Aldrich, Poole, UK,) as previously described (Muehlbauer P. A. and Schuler M. J., Mutation Research, 2003, 537:117-130). Fluorescence is observed using an ATTUNE flow cytometer (Invitrogen, Paisley, UK), gating for lymphocytes.

[6] = tested on: LPS-induced TNFα release in d-U937 cells; assay: LPS-induced TNFα release in d-U937 cells; assay type: cell-based; settings: Homo sapiens, dU937, relative to 10 μg/mL BIRB796, read-out: LPS Induced Release of Cytokine in d-937 Cells TNFα REC50
Outline: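 PMA-differentiated (100 ng/mL, 48–72 hr) U937 cells pre-incubated with compound 2 hr, then stimulated with LPS (0.1 μg/mL, E. coli O111:B4) for 4 hr. Supernatant TNFα and IL-8 measured by sandwich ELISA; inhibition versus vehicle control, REC50 from concentration-response curve.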

[7] = tested on: LPS-induced airways neutrophilia in mice; assay: LPS-induced neutrophil accumulation in mice; assay type: in vivo; settings: Test Substance at 0.2 mg/mL, intra tracheal, dosed 8 hr pre-LPS challenge
Protocol: Non-fasted Balb/c mice are dosed by the intra tracheal route with either vehicle, or the test substance at the indicated times (within the range 2-8 hr) before stimulation of the inflammatory response by application of an LPS challenge. At T=0, mice are placed into an exposure chamber and exposed to LPS (7.0 mL, 0.5 mg/mL solution in PBS) for 30 min). After a further 8 hr the animals are anesthetized, their tracheas cannulated and BALF extracted by infusing and then withdrawing from their lungs 1.0 mL of PBS via the tracheal catheter. Total and differential white cell counts in the BALF samples are measured using a Neubaur haemocytometer. Cytospin smears of the BALF samples are prepared by centrifugation at 200 rpm for 5 min at RT and stained using a DiffQuik stain system (Dade Behring). Cells are counted using oil immersion microscopy. Data for neutrophil numbers in BAL are shown as mean±S.E.M. (standard error of the mean). The percentage inhibition of neutrophil accumulation is calculated for each treatment relative to vehicle treatment.

GSK3α [8] = biological target: T2, GSK3α; assay: Enzyme binding assay (Kinomescan) GSK3α; settings: read-out: % Inhibition for kinase binding at 500 nM GSK3α
Protocol: (§2) The kinase enzyme binding activities of compounds disclosed herein were determined using a proprietary assay which measures active site-directed competition binding to an immobilized ligand (Fabian, M. A. et al., Nature Biotechnol., 2005, 23:329-336). These assays were conducted by DiscoverX (formerly Ambit; San Diego, Calif.). The percentage inhibition produced by incubation with a test compound is calculated relative to the non-inhibited control.

Syk [9] = biological target: T1, Syk; assay: Enzyme binding assay (Kinomescan) Syk; settings: read-out: % Inhibition for kinase binding at 500 nM Syk
Protocol: as §2

HCK = HCK (Homo sapiens (Human), UniProt P08631); assay: Enzyme binding assay (Kinomescan) HCK; settings: read-out: % Inhibition for kinase binding at 500 nM HCK
Protocol: as §2

p38 MAPKα [10] = biological target: T3, p38 MAPKα; assay: Enzyme binding assay (Kinomescan) p38 MAPKα; settings: read-out: % Inhibition for kinase binding at 500 nM p38 MAPKα
Protocol: as §2

B-Raf = B-Raf (Homo sapiens (Human), UniProt P15056); assay: Enzyme binding assay (Kinomescan) B-Raf; settings: read-out: % Inhibition for kinase binding at 500 nM B-Raf
Protocol: (§3) These assays were conducted by DiscoverX (formerly Ambit; San Diego, Calif.). The percentage inhibition produced by incubation with a test compound is calculated relative to the non-inhibited control.

p38 MAPKγ = p38 MAPKγ (Homo sapiens (Human), UniProt P53778); assay: Enzyme binding assay (Kinomescan) p38 MAPKγ; settings: read-out: % Inhibition for kinase binding at 500 nM p38 MAPKγ
Protocol: as §3

Chain of cSrc (P12931 whole entry, looked up): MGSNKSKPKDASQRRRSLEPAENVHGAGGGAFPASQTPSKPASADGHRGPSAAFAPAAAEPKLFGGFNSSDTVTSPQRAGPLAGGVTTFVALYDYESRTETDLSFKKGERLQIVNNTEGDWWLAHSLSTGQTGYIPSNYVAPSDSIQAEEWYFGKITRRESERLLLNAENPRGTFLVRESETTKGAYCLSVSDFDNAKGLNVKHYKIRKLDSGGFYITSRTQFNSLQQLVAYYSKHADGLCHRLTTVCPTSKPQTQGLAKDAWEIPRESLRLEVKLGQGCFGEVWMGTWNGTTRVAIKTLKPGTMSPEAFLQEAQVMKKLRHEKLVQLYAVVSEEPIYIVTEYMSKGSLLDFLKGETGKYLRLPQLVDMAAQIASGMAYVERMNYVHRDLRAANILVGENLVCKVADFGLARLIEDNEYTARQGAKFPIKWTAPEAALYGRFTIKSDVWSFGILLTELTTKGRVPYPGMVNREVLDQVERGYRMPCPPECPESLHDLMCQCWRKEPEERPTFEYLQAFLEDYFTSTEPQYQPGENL
T3 sequence (Q16539 whole entry): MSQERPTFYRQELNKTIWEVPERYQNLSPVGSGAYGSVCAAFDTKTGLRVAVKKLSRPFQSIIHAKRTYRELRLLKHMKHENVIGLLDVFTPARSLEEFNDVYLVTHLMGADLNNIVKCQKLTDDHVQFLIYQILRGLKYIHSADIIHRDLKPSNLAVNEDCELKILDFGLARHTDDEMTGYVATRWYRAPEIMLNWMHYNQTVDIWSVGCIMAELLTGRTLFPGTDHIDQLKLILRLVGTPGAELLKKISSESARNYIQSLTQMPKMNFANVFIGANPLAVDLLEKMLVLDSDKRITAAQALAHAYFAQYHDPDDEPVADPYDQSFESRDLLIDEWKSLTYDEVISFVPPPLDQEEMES
T2 sequence (P49840 whole entry): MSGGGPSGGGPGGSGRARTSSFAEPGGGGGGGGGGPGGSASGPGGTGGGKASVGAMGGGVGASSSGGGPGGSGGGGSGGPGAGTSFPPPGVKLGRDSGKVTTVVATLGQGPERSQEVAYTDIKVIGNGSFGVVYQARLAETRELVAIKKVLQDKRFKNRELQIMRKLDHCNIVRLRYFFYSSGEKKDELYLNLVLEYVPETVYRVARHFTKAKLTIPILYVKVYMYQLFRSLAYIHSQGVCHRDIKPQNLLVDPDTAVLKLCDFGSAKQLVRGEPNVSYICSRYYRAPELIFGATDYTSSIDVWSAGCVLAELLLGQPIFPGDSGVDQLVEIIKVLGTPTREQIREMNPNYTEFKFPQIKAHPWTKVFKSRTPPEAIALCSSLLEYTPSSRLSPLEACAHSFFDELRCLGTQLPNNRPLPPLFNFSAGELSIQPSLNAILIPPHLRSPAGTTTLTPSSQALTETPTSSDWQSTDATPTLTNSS
Chain of HCK (P08631 22-526): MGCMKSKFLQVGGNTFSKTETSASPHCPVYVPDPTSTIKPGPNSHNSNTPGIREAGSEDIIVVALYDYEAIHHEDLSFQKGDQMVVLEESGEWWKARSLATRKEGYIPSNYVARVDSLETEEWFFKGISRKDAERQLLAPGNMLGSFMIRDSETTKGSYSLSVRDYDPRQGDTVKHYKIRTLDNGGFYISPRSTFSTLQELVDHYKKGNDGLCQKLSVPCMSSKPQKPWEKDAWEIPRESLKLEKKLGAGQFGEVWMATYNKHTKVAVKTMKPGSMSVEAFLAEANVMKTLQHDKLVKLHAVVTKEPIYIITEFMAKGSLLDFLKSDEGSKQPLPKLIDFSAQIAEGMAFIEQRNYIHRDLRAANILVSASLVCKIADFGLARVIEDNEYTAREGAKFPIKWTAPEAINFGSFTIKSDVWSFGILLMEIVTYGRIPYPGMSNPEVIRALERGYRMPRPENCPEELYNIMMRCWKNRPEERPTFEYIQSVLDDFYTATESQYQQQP
Chain of p38 MAPKγ (P53778 whole entry): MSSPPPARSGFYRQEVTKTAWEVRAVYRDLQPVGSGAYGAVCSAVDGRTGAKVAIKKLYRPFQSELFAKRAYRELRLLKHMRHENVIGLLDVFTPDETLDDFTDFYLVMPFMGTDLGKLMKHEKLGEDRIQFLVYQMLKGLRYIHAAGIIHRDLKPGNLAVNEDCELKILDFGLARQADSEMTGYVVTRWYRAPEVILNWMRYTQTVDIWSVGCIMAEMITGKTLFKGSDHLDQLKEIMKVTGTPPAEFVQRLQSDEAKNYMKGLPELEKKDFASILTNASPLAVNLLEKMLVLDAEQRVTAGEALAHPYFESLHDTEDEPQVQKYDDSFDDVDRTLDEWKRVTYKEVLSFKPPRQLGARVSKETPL
Chain of B-Raf (P15056 whole entry): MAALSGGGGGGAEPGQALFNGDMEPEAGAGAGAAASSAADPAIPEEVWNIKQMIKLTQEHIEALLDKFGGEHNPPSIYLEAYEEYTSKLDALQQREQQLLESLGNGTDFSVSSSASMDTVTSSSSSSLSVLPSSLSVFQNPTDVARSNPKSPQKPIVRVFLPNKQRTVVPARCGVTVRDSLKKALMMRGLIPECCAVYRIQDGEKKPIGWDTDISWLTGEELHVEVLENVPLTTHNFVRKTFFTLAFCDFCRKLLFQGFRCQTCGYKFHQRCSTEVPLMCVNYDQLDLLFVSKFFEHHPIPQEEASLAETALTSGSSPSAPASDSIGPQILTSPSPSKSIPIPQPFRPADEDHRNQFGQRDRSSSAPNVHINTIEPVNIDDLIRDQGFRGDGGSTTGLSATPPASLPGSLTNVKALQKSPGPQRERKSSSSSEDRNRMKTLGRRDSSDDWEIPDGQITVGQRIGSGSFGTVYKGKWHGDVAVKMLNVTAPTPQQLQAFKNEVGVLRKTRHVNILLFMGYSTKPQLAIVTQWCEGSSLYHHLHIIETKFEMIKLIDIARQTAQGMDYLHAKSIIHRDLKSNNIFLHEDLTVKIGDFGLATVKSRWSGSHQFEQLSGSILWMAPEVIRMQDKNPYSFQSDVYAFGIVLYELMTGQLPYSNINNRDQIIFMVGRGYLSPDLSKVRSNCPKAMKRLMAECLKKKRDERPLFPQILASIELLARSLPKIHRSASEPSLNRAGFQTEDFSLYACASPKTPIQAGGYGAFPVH

SMILES	IC50 (Syk [1]) [nM]	IC50 (GSK3α [2]) [nM]	IC50 [3] [nM]	IC50 (cSrc) [nM]	IC50 (p38 MAPKα [4]) [nM]	Mitosis Assay % inhibition in PBMC cells at 5 μg/mL (PBMC cells) [%]	EC50 [6] [nM]	inhibition at 0.5 µM (B-Raf) [%]	MTT Assay Cell viability at time point in d-U937 cells 4 h (d-U937 cells)	MTT Assay Cell viability at time point in d-U937 cells 24 h (d-U937 cells)	IC50 [5] [nM]	% Inhibition of neutrophil accumulation in BAL [7] [%]	Neutrophil numbers in BAL (+/−SEM) [7]	inhibition at 0.5 µM (GSK3α [8]) [%]	inhibition at 0.5 µM (Syk [9]) [%]	inhibition at 0.5 µM (HCK) [%]	inhibition at 0.5 µM (p38 MAPKα [10]) [%]	inhibition at 0.5 µM (p38 MAPKγ) [%]
Cc1ccc(-n2nc(C(C)(C)C)cc2NC(=O)Nc2ccc(Oc3ccnc(Nc4ccc5[nH]nnc5c4)n3)c3ccccc23)cc1 [Example 36, 1-(4-((2-((1H-benzo[d][1,2,3]triazol-5-yl)amino)pyrimidin-4-yl)oxy)naphthalen-1-yl)-3-(3-(tert-butyl)-1-(p-tolyl)-1H-pyrazol-5-yl)urea]	75	2100	2.3	14	92	41.2	17.2		−ve (−ve and +ve indicate that the value is below and above respectively, the no significant effect threshold, defined as 30% inhibition at 1 μg/mL at the time point indicated.)	−ve (−ve and +ve indicate that the value is below and above respectively, the no significant effect threshold, defined as 30% inhibition at 1 μg/mL at the time point indicated.)	6.3							
CC(C)(C)c1cc(NC(=O)Nc2ccc(Oc3cc(Nc4ccc5[nH]ncc5c4)ncn3)c3ccccc23)n(-c2ccc(OCCN3CCOCC3)cc2)n1 [Example 70, 1-(4-((6-((1H-indazol-5-yl)amino)pyrimidin-4-yl)oxy)naphthalen-1-yl)-3-(3-(tert-butyl)-1-(4-(2-morpholinoethoxy)phenyl)-1H-pyrazol-5-yl)urea]	14	3250	2.7	13	33	62.4	2.5		−ve (−ve and +ve indicate that the value is below and above respectively, the no significant effect threshold, defined as 30% inhibition at 1 μg/mL at the time point indicated.)	−ve (−ve and +ve indicate that the value is below and above respectively, the no significant effect threshold, defined as 30% inhibition at 1 μg/mL at the time point indicated.)	4.1							
CNC(=O)c1cc(Oc2ccc(NC(=O)Nc3ccc(Cl)c(C(F)(F)F)c3)cc2)ccn1 [Sorafenib]														26	14	22	77	28

Further lines, with some results ahead:

IC50 (Syk [1]) [nM]	IC50 (GSK3α [2]) [nM]	IC50 [3] [nM]	IC50 (cSrc) [nM]	IC50 (p38 MAPKα [4]) [nM]	Mitosis Assay % inhibition in PBMC cells at 5 μg/mL (PBMC cells) [%]	EC50 [6] [nM]	inhibition at 0.5 µM (B-Raf) [%]	SMILES	MTT Assay Cell viability at time point in d-U937 cells 4 h (d-U937 cells)	MTT Assay Cell viability at time point in d-U937 cells 24 h (d-U937 cells)	IC50 [5] [nM]	% Inhibition of neutrophil accumulation in BAL [7] [%]	Neutrophil numbers in BAL (+/−SEM) [7]	inhibition at 0.5 µM (GSK3α [8]) [%]	inhibition at 0.5 µM (Syk [9]) [%]	inhibition at 0.5 µM (HCK) [%]	inhibition at 0.5 µM (p38 MAPKα [10]) [%]	inhibition at 0.5 µM (p38 MAPKγ) [%]
7	> 15600	3.9	4	38	23.7	1.6		COc1ccc(-n2nc(C(C)C)cc2NC(=O)Nc2ccc(Oc3ccnc(Nc4cc(C)c5[nH]ncc5c4)n3)c3ccccc23)cc1 [Example 9, 1-(3-Isopropyl-1-(4-methoxyphenyl)-1H-pyrazol-5-yl)-3-(4-((2-((7-methyl-1H-indazol-5-yl)amino)pyrimidin-4-yl)oxy)naphthalen-1-yl)urea]	−ve (−ve and +ve indicate that the value is below and above respectively, the no significant effect threshold, defined as 30% inhibition at 1 μg/mL at the time point indicated.)	−ve (−ve and +ve indicate that the value is below and above respectively, the no significant effect threshold, defined as 30% inhibition at 1 μg/mL at the time point indicated.)	1.2							
< 1	267	4.1	< 1	44	15.4	1.6		CC(C)(C)c1cc(NC(=O)Nc2ccc(Oc3ccnc(Nc4ccc5c(c4)NC(=O)C5)n3)c3ccccc23)n(-c2ccc(OCCN3CCOCC3)nc2)n1 [Example 90, 1-(3-(tert-butyl)-1-(6-(2-morpholinoethoxy)pyridin-3-yl)-1H-pyrazol-5-yl)-3-(4-((2-((2-oxoindolin-6-yl)amino)pyrimidin-4-yl)oxy)naphthalen-1-yl)urea]	−ve (−ve and +ve indicate that the value is below and above respectively, the no significant effect threshold, defined as 30% inhibition at 1 μg/mL at the time point indicated.)	−ve (−ve and +ve indicate that the value is below and above respectively, the no significant effect threshold, defined as 30% inhibition at 1 μg/mL at the time point indicated.)	14.6							
						0.13	70	COCC(=O)Nc1cc(Oc2ccc(NC(=O)Nc3cc(C(C)(C)C)nn3-c3ccc(C)cc3)c3ccccc23)ccn1 [Reference Compound, N-(4-(4-(3-(3-tert-butyl-1-p-tolyl-1H-pyrazol-5-yl)ureido)naphthalen-1-yloxy)pyridin-2-yl)-2-methoxyacetamide, reference compound]	−ve (−ve and +ve indicate that the value is below and above respectively, the no significant effect threshold, defined as 30% inhibition at 1 μg/mL at the time point indicated.)	+ve (−ve and +ve indicate that the value is below and above respectively, the no significant effect threshold, defined as 30% inhibition at 1 μg/mL at the time point indicated.)	2.1	60	5.6 ± 0.86 ×10^5/mL	84	95	100	100	
